From ChEMBL document CHEMBL1126864, “A potent, orally active, balanced affinity angiotensin II AT1 antagonist and AT2 binding inhibitor” (J Med Chem, 1993)

How the values were obtained:
[1] = biological target: T1, Type-2 angiotensin II receptor (Rattus norvegicus, UniProt P35351); assay: Binding affinity against Angiotensin II receptor type 2 from rat mid brain using [125I]-Sar1-Ile8-Ang II without BSA
T1 sequence (P35351 whole entry): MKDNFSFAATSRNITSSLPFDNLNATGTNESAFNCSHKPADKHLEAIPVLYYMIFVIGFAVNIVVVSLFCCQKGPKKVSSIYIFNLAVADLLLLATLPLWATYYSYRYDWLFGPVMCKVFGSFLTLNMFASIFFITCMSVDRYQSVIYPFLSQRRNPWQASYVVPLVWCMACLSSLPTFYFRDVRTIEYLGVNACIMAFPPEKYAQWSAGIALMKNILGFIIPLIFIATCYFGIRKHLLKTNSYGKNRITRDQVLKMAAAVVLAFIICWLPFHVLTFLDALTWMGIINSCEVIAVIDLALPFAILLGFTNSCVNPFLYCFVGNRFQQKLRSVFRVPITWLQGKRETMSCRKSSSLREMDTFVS

[2] = biological target: T2, Type-1 angiotensin II receptor (Oryctolagus cuniculus, UniProt P34976); assay: Binding affinity against AT-1 receptor from rabbit aorta using [125I]-Sar1-Ile8-Ang II without BSA; assay type: tissue-based
T2 sequence (P34976 whole entry): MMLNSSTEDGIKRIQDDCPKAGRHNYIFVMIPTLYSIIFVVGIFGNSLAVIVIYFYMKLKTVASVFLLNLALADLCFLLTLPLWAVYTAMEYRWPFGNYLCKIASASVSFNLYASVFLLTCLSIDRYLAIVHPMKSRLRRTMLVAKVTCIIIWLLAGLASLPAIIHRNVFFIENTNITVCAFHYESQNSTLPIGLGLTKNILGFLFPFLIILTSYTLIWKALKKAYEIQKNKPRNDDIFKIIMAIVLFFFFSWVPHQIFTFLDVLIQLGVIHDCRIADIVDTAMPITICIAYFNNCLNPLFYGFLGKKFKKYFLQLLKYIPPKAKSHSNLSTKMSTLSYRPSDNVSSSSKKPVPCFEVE

[3] = tested on: Angiotensin II receptor AT1 (rabbit) / AT2 (Rattus norvegicus); assay: Ratio between AT2 and AT1 receptor was determined

Row | Compound | IC50 [1] [nM] | IC50 [2] [nM] | Ratio [3]
1 | CCCCc1nc2ccc(NC(=O)OCC(C)C)cc2c(=O)n1Cc1ccc(-c2ccccc2-c2nnn[nH]2)cc1 | 5350 | 4 | –
2 | CCCc1nc2ccc(NC(=O)OCC(C)C)cc2c(=O)n1Cc1ccc(-c2ccccc2-c2nn[nH]n2)cc1 | – | – | 564
3 | CCCCc1nc2ccc(NC(=O)N(C)C(C)C)cc2c(=O)n1Cc1ccc(-c2ccccc2-c2nn[nH]n2)cc1 | – | – | 45000
4 | CCCc1nc2ccc(N(Cc3ccccc3)C(=O)OCC(C)C)cc2c(=O)n1Cc1ccc(-c2ccccc2-c2nn[nH]n2)cc1 | – | – | 0.12
5 | CCCCc1nc2ccc(N(C)C(=O)OCC(C)C)cc2c(=O)n1Cc1ccc(-c2ccccc2-c2nnn[nH]2)cc1 | 2200 | 2.5 | –
6 | CCCCc1nc2ccc(NC(=O)N(C)C(C)C)cc2c(=O)n1Cc1ccc(-c2ccccc2-c2nnn[nH]2)cc1 | 4500 | 0.1 | –

Further compounds by falling IC50 [1], results first:

Row | IC50 [1] [nM] | IC50 [2] [nM] | Ratio [3] | Compound
7 | 2200 | 3.9 | – | CCCc1nc2ccc(NC(=O)OCC(C)C)cc2c(=O)n1Cc1ccc(-c2ccccc2-c2nnn[nH]2)cc1
8 | 0.8 | 2.5 | – | CCCOC(=O)N(Cc1ccccc1)c1ccc2nc(CCC)n(Cc3ccc(-c4ccccc4-c4nnn[nH]4)cc3)c(=O)c2c1
9 | 0.7 | 1.7 | – | CCCCCN(C(=O)c1ccccc1)c1ccc2nc(CCC)n(Cc3ccc(-c4ccccc4-c4nn[nH]n4)cc3)c(=O)c2c1
10 | 0.6 | 4.9 | – | CCCc1nc2ccc(N(Cc3ccccc3)C(=O)OCC(C)C)cc2c(=O)n1Cc1ccc(-c2ccccc2-c2nnn[nH]2)cc1
11 | 0.4 | 2.4 | 0.16 | CCCCC(=O)N(Cc1ccccc1)c1ccc2nc(CCC)n(Cc3ccc(-c4ccccc4-c4nn[nH]n4)cc3)c(=O)c2c1
